Species on record: Mus musculus
Assay: Effective dose for inhibition of phencyclidine binding measured in mouse rotarod assay
Assay type: functional

Structure (SMILES) | ED50
Oc1cccc(C2(N3CCCCC3)CCCCC2)c1 | 2.2 mg/kg
OC1CCCC(c2ccccc2)(N2CCCCC2)C1 (stereo unspecified) | 49.9 mg/kg
Oc1ccc(C2(N3CCCCC3)CCCCC2)cc1 | 28 mg/kg
OC1CCN(C2(c3ccccc3)CCCCC2)CC1 | 42 mg/kg
Oc1ccccc1C1(N2CCCCC2)CCCCC1 | 18 mg/kg
c1ccc(C2(N3CCCCC3)CCCCC2)cc1 [PHENCYCLIDINE] | 4 mg/kg
